The data set can be described thus: log P by HPLC on reversed-phase column (C 18), acidic range. The format is physicochemical. As to the method:
Temperature: 43° C. […] The log P values given in Table 3 were determined in accordance with EEC Directive 79/831 Annex V.A8 by HPLC (High Performance Liquid Chromatography) on a reversed-phase column (C 18). Temperature: 43° C. […] The log P values given in Tables 4 were determined in accordance with EEC Directive 79/831 Annex V.A8 by HPLC (High Performance Liquid Chromatography) on a reversed-phase column (C 18). Temperature: 43° C.

Molecules are shown by their SMILES. Marks after values point to notes of the source that are not given here.

For the compound `Cc1nn(C)c(O)c1C(=O)c1ccc(Cl)c(CN2CCN(C)C2=O)c1Cl` [ID-51], the logP entry is “logP = 1.38^a)”.
On to `CCn1nc(C)c(C(=O)c2ccc(Cl)c(CN3CCN(C)C3=O)c2Cl)c1O` [ID-52], for which the logP entry was “logP = 1.56^a)”.
The same measure for `Cc1nn(C(C)(C)C)c(O)c1C(=O)c1ccc(Cl)c(CN2CCN(C)C2=O)c1Cl` [ID-53]: “logP = 2.79^a)”.
Take `CCN1CCN(Cc2c(Cl)ccc(C(=O)c3cnn(C)c3O)c2Cl)C1=O` [ID-54]: the logP result is on record as “logP = 1.62^a)”.
Then `CCN1CCN(Cc2c(Cl)ccc(C(=O)c3c(C)nn(C)c3O)c2Cl)C1=O` [ID-55], with “logP = 1.57^a)”; and `CCN1CCN(Cc2c(Cl)ccc(C(=O)c3cnn(CC)c3O)c2Cl)C1=O` [ID-56], with “logP = 1.88^a)”; and `CCN1CCN(Cc2c(Cl)ccc(C(=O)c3c(C)nn(CC)c3O)c2Cl)C1=O` [ID-57], with “logP = 1.79^a)”.
The same measure for `CCN1CCN(Cc2c(Cl)ccc(C(=O)c3c(C)nn(C(C)(C)C)c3O)c2Cl)C1=O` [ID-58]: “logP = 3.15^a)”.
As to `COC(=O)c1ccc(Cl)c(Cn2nc(SC)n(C)c2=O)c1Cl` [IV-3], the logP entry is recorded as “logP = 2.27^a)”.
The same measure for `CCOc1nn(Cc2c(Cl)ccc(C(=O)OC)c2Cl)c(=O)n1C` [IV-4]: “logP = 2.38^a)”.
The same measure for `COC(=O)c1ccc(Cl)c(Cn2nc(C3CC3)n(C3CC3)c2=O)c1Cl` [IV-5]: “logP = 2.55^a)”.
The same measure for `COC(=O)c1ccc(Cl)c(Cn2nc(OC)n(C)c2=O)c1Cl` [IV-6]: “logP = 2.04^a)”; for `COC(=O)c1ccc(Cl)c(Cn2nc(OC(C)C)n(C)c2=O)c1Cl` [IV-7]: “logP = 2.73^a)”.
With `COC(=O)c1ccc(Cl)c(Cn2nc(OCC(F)(F)F)n(C)c2=O)c1Cl` [IV-8], the logP result is “logP = 2.72^a)”.
The same measure for `COC(=O)c1ccc(Cl)c(Cn2nc(Br)n(C)c2=O)c1Cl` [IV-9]: “logP = 2.18^a)”; for `COC(=O)c1ccc(Cl)c(Cn2ncn(C)c2=O)c1Cl` [IV-10]: “logP = 1.55^a)”.
As to `COC(=O)c1ccc(Cl)c(Cn2nc(C3CC3)n(C)c2=O)c1Cl` [IV-11], the logP entry is “logP = 2.16^a)”.
In the case of `COC(=O)c1ccc(Cl)c(Cn2nc(N(C)C)n(C)c2=O)c1Cl` [IV-12], the logP entry is “logP = 2.11^a)”.
The same measure for `COC(=O)c1ccc(Cl)c(Cn2nc(C)n(C)c2=O)c1Cl` [IV-13]: “logP = 1.65^a)”.
The same measure for `COC(=O)c1ccc(Cl)c(Cn2nc3n(c2=O)CCCC3)c1Cl` [IV-14]: “logP = 1.86^a)”.
Then `COC(=O)c1ccc(Cl)c(Cn2nc(OC)n(C3CC3)c2=O)c1Cl` [IV-15], with “logP = 2.36^a)”.
As for `CCOc1nn(Cc2c(Cl)ccc(C(=O)OC)c2Cl)c(=O)n1C1CC1` [IV-16], the logP result is given as “logP = 2.73^a)”.
The same measure for `COC(=O)c1ccc(Cl)c(Cn2nc(OC(C)C)n(C3CC3)c2=O)c1Cl` [IV-17]: “logP = 3.08^a)”; for `COC(=O)c1ccc(Cl)c(Cn2nc(OCC(F)(F)F)n(C3CC3)c2=O)c1Cl` [IV-18]: “logP = 3.05^a)”; for `COC(=O)c1ccc(Cl)c(Cn2nc(SC)n(C3CC3)c2=O)c1Cl` [IV-19]: “logP = 2.70^a)”.
The same measure for `COC(=O)c1ccc(Cl)c(Cn2nc(C)n(C3CC3)c2=O)c1Cl` [IV-20]: “logP = 1.97^a)”; for `COC(=O)c1ccc(Cl)c(Cn2nc(N(C)C)n(C3CC3)c2=O)c1Cl` [IV-21]: “logP = 2.42^a)”.
Then `CCOn1c(CC)nn(Cc2c(Cl)ccc(C(=O)OC)c2Cl)c1=O` [IV-22], with “logP = 2.58^a)”; and `COC(=O)c1ccc(Cl)c(CN2CCN(C)C2=O)c1Cl` [IV-23], with “logP = 1.98^a)”.
As to `COC(=O)c1ccc(Cl)c(CN2CCCN(C)C2=O)c1Cl` [IV-24], the logP entry was “logP = 2.07^a)”.
Then `COC(=O)c1ccc(Cl)c(CN2C(=O)c3ccccc3S2(=O)=O)c1Cl` [IV-25], with “logP = 2.94^a)”; and `CCOC(=O)c1ccc(S(C)(=O)=O)cc1CN1C(=O)CCC1=O` [IV-33], with “logP = 1.53^a)”; and `CCOC(=O)c1ccc(Br)cc1Cn1nc(CC)n(OCC)c1=O` [IV-34], with “logP = 3.24^a)”.
As to `CCOC(=O)c1ccc(Br)cc1Cn1nc(C(F)(F)F)n(C)c1=O` [IV-35], the logP entry is “logP = 3.40^a)”.
Then `CCOC(=O)c1ccc(F)c(Cn2nc(Br)n(C)c2=O)c1` [IV-36], with “logP = 2.41^a)”.
Regarding `CCOC(=O)c1ccc(F)cc1Cn1nc(SC)n(C)c1=O` [IV-37], the logP result was “logP = 2.45^a)”.
The same measure for `CCOC(=O)c1ccc(Br)c(Cn2nc(C)n(C)c2=O)c1` [IV-38]: “logP = 2.06^a)”; for `CCOC(=O)c1ccc(Br)c(Cn2nc(Br)n(C)c2=O)c1` [IV-39]: “logP = 2.64^a)”; for `CCOC(=O)c1ccc(Br)c(Cn2nc(C(F)(F)F)n(C)c2=O)c1` [IV-40]: “logP = 3.23^a)”.
The same measure for `CCOC(=O)c1ccc(Br)c(Cn2nc(C3CC3)n(C3CC3)c2=O)c1` [IV-41]: “logP = 3.02^a)”.
The same measure for `CCOC(=O)c1ccc(Cl)cc1Cn1nc(OCC)n(C2CC2)c1=O` [IV-42]: “logP = 3.23^a)”; for `CCOC(=O)c1ccc(Cl)cc1Cn1nc(C(F)(F)F)n(C)c1=O` [IV-43]: “logP = 3.31^a)”; for `CCOC(=O)c1ccc(Cl)cc1Cn1nc(CC)n(OCC)c1=O` [IV-44]: “logP = 3.14^a)”.
On to `CCOC(=O)c1ccc([N+](=O)[O-])cc1Cn1nc(OCC)n(C2CC2)c1=O` [IV-45], for which the logP entry was “logP = 2.42^a)”.
As to `CCOC(=O)c1ccc([N+](=O)[O-])cc1Cn1nc(SC)n(C)c1=O` [IV-46], the logP result is on record as “logP = 2.82^a)”.
Then `CCOC(=O)c1ccc(C(F)(F)F)cc1Cn1nc(OCC)n(C2CC2)c1=O` [IV-47], with “logP = 3.48^a)”; and `CCOC(=O)c1ccc(C(F)(F)F)cc1Cn1nc(CC)n(OCC)c1=O` [IV-48], with “logP = 3.38^a)”.
The same measure for `CCOC(=O)c1ccc(C(F)(F)F)cc1Cn1nc(SC)n(C)c1=O` [IV-49]: “logP = 3.02^a)”.
The same measure for `CCCOC(=O)c1ccc(C(F)(F)F)cc1Cn1nc(OCC)n(C2CC2)c1=O` [IV-50]: “logP = 3.91^a)”; for `CCOC(=O)c1ccc(Br)cc1Cn1nc(OCC)n(C)c1=O` [IV-58]: “logP = 2.95^a)”; for `CCOC(=O)c1ccc(Br)cc1CN1C(=O)CCC1=O` [IV-60]: “logP = 2.44^a)”.
In the case of `CCOC(=O)c1ccc(Br)cc1Cn1nc(OC(C)C)n(C)c1=O` [IV-65], the logP entry is listed as “logP = 3.34^a)”.
For the compound `CCCOc1nn(Cc2cc(Br)ccc2C(=O)OCC)c(=O)n1C` [IV-66], the logP entry is given as “logP = 3.38^a)”.
For `CCOC(=O)c1ccc(Br)cc1Cn1nc(OCC(F)(F)F)n(C)c1=O` [IV-67], the logP entry is on record as “logP = 3.31^a)”.
The same measure for `CCOC(=O)c1ccc(Br)cc1Cn1nc2n(c1=O)CCC2` [IV-68]: “logP = 2.16^a)”.
The same measure for `CCOC(=O)c1ccc(Br)cc1Cn1nc2n(c1=O)CCCC2` [IV-69]: “logP = 2.41^a)”.
Then `CCOC(=O)c1ccc(C(F)(F)F)cc1Cn1nc(OC(C)C)n(C)c1=O` [IV-70], with “logP = 3.51^a)”; and `CCCOc1nn(Cc2cc(C(F)(F)F)ccc2C(=O)OCC)c(=O)n1C` [IV-71], with “logP = 3.54^a)”; and `CCOC(=O)c1ccc(Br)cc1CN1CCOC1=O` [IV-72], with “logP = 2.36^a)”.
For the compound `CCOC(=O)c1ccc(Br)cc1Cn1nc(C)oc1=O` [IV-73], the logP result is on record as “logP = 2.88^a)”.
As to `CCOC(=O)c1ccc(C(F)(F)F)cc1Cn1cnn(C)c1=O` [IV-74], the logP result is on record as “logP = 2.68^a)”.
Then `CCOC(=O)c1ccc(Br)cc1Cn1nc(Br)n(C)c1=O` [IV-75], with “logP = 2.80^a)”; and `CCOC(=O)c1ccc(C(F)(F)F)cc1Cn1nc(COC)n(C2CC2)c1=O` [IV-77], with “logP = 2.88^a)”; and `CCOC(=O)c1ccc(C(F)(F)F)cc1Cn1nc(COC)n(C)c1=O` [IV-78], with “logP = 2.60^a)”.
The same measure for `CCOC(=O)c1ccc(C(F)(F)F)cc1Cn1nc(Br)n(C2CC2)c1=O` [IV-79]: “logP = 3.35^a)”.
The same measure for `CCOC(=O)c1ccc(Br)cc1Cn1nc(SC)n(C)c1=O` [IV-80]: “logP = 2.86^a)”; for `CCOC(=O)c1ccc(Cl)cc1Cn1nc(SC)n(C)c1=O` [IV-81]: “logP = 2.83^a)”; for `CCOC(=O)c1ccc(Br)cc1Cn1nc(N(C)C)n(C)c1=O` [IV-82]: “logP = 2.60^a)”.
Turning to `CCOC(=O)c1ccc(C(F)(F)F)cc1Cn1nc(N(C)C)n(C)c1=O` [IV-85], the logP entry was “logP = 2.79^a)”.
The same measure for `CCOC(=O)c1ccc(C(F)(F)F)cc1Cn1nc(OCC(F)(F)F)n(C)c1=O` [IV-93]: “logP = 3.45^a)”.
In the case of `CCOC(=O)c1ccc(F)cc1Cn1nc(N(C)C)n(C)c1=O` [IV-94], the logP entry is “logP = 2.21^a)”.
As for `CCCOc1nn(Cc2cc(F)ccc2C(=O)OCC)c(=O)n1C` [IV-95], the logP entry is on record as “logP = 2.96^a)”.
Then `CCOC(=O)c1ccc(F)cc1Cn1nc(COC)n(C)c1=O` [IV-96], with “logP = 2.05^a)”; and `CCOC(=O)c1ccc(F)cc1Cn1nc(OC)n(C2CC2)c1=O` [IV-97], with “logP = 2.50^a)”.
Then `CCOC(=O)c1ccc(F)cc1Cn1nc(OCC)n(C2CC2)c1=O` [IV-98], with “logP = 2.89^a)”.
The same measure for `CCOC(=O)c1ccc(C(F)(F)F)cc1CN1N=C(C)C(C)(C)C1=O` [IV-99]: “logP = 2.91^a)”.
Regarding `CCOC(=O)c1ccc(C(F)(F)F)cc1Cn1c(=O)n(C)c(=O)n1C` [IV-113], the logP result is given as “logP = 2.58^a)”.
Then `COC(=O)c1ccc(S(C)(=O)=O)cc1Cn1nc(SC)n(C)c1=O` [IV-114], with “logP = 1.53^a)”; and `CCOc1nn(Cc2cc(S(C)(=O)=O)ccc2C(=O)OC)c(=O)n1C` [IV-115], with “logP = 1.59^a)”.

The values are drawn from US7279444B2, “Substituted benzoylpyrazoles” (Bayer CropScience GmbH, priority 1999, dated 2007).
